Assay results as given in the supplement of paper PMC11208160.

Experiment: recombinant barcode read abundance after kanamycin selection (control-corrected) (log10(CPM+1)); higher = more efficient recombination; sequences stand for … in AGTGCAGAGAAAATCGGCCAGTTTTCTCTGCCTGCAGTCCGCATGCCGT…AGATTTATGCAGCGGACTGCCTTTCTCCCAAAGTGATAAACCGGACAGTATCATGGACCGGTTTTCCCGGTAATCCGTATTTGCAAGGTTGGTTTCACT; site = the 11-nt target
In short: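 Values are log10(CPM+1) from a pooled E. coli screen of targets paired with IS621 bridge RNA target-binding loops. Recombination efficiency here means counts per million of recombinant-junction barcodes, averaged and control-corrected. Plates were chloramphenicol/ampicillin LB agar for the control and chloramphenicol/ampicillin/kanamycin with 0.1 mM IPTG, two replicates each.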
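Further: IS621 recombinase and bridge RNA in Escherichia coli cells.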

Sequence	recombinant barcode read abundance (log10)
TACGAATCTTGGGTTCTAACCTGTTGCCT (site TACGAATCTCG)	0.0232
TACGACACTTGGGTTCTAACCTGTTGCCT (site TACGACACTAG)	1.9
TACGACACTTGGGTTCTAACCTGTTGCCT (site TCCGACACTAG)	0.0501
TACGACTCTTGGGTTCTAACCTGTTGCTT (site TACGACTCTAA)	1.73
TACGACTCTTGGGTTCTAACCTGTTGCTT (site TTCGACTCTTA)	0.0713
TACGCACCTTGGGTTCTAACCTGTTGCGA (site GTAATTACTAG)	0.297
TACGCACCTTGGGTTCTAACCTGTTGCGA (site TACGCACCTTC)	1.03
TACGCGGCTTGGGTTCTAACCTGTTGCCT (site TACGAGGCTAG)	0.0562
TACGCGGCTTGGGTTCTAACCTGTTGCCT (site TACGCGGCTAG)	0.335
TACGCGGCTTGGGTTCTAACCTGTTGCCT (site TACGGGGCTAG)	0.208
TACGCGGCTTGGGTTCTAACCTGTTGCCT (site TACGTGGCTAG)	0.192
TACGCTCCTTGGGTTCTAACCTGTTGCCT (site TACGCTCCTAA)	0.0709
TACGCTCCTTGGGTTCTAACCTGTTGCCT (site TACGCTCCTAC)	0
TACGCTCCTTGGGTTCTAACCTGTTGCCT (site TACGCTCCTAG)	0.271
TACGCTCCTTGGGTTCTAACCTGTTGCCT (site TACGCTCCTAT)	0.452
TACGGCTCTTGGGTTCTAACCTGTTGCTT (site TACAGCTCTAA)	0.297
TACGGCTCTTGGGTTCTAACCTGTTGCTT (site TACCGCTCTAA)	0.0429
TACGGCTCTTGGGTTCTAACCTGTTGCTT (site TACGGCTCTAA)	1.51
TACGGCTCTTGGGTTCTAACCTGTTGCTT (site TACTGCTCTAA)	0.0509
TACTAAGCTTGGGTTCTAACCTGTTGCTT (site TACTAAGCTAA)	0.184
TACTAAGCTTGGGTTCTAACCTGTTGCTT (site TACTAAGCTAC)	0.0381
TACTAAGCTTGGGTTCTAACCTGTTGCTT (site TACTAAGCTAG)	0.0797

Sequence	recombinant barcode read abundance (log10)
TACTAAGCTTGGGTTCTAACCTGTTGCTT (site TACTAAGCTAT)	0.321
TACTACCCTTGGGTTCTAACCTGTTGCGT (site TACTACCCTAC)	0.358
TACTACCCTTGGGTTCTAACCTGTTGCGT (site TGCCACCCTAC)	1.28
TACTCCTCTTGGGTTCTAACCTGTTGCGG (site CTAAAAGCTTG)	0.0539
TACTCCTCTTGGGTTCTAACCTGTTGCGG (site TACTCCTCTCC)	0.155
TACTCTTCTTGGGTTCTAACCTGTTGCCT (site GGTCAACCTCC)	0.0368
TACTCTTCTTGGGTTCTAACCTGTTGCCT (site TACTCTTCTAG)	0.279
TACTGAACTTGGGTTCTAACCTGTTGCCT (site TACTAAACTAG)	0.0356
TACTGAACTTGGGTTCTAACCTGTTGCCT (site TACTCAACTAG)	0.104
TACTGAACTTGGGTTCTAACCTGTTGCCT (site TACTGAACTAG)	0.159
TACTGAACTTGGGTTCTAACCTGTTGCCT (site TACTTAACTAG)	0.305
TACTGGGCTTGGGTTCTAACCTGTTGCTG (site TACTGGGCTCA)	0.684
TACTGGGCTTGGGTTCTAACCTGTTGCTG (site TACTGGGCTCC)	0.0895
TAGAACACTTGGGTTCTAACCTGTTGCCT (site AAGAACACTAG)	0.0955
TAGAACACTTGGGTTCTAACCTGTTGCCT (site CAGAACACTAG)	0.256
TAGAACACTTGGGTTCTAACCTGTTGCCT (site GAGAACACTAG)	0.108
TAGAACACTTGGGTTCTAACCTGTTGCCT (site TAGAACACTAG)	0.992
TAGAACACTTGGGTTCTAACCTGTTGCTA (site TAGAACACTAA)	0.237
TAGAACACTTGGGTTCTAACCTGTTGCTA (site TAGAACACTCA)	0.109
TAGAACACTTGGGTTCTAACCTGTTGCTA (site TAGAACACTGA)	0.71
TAGAACACTTGGGTTCTAACCTGTTGCTA (site TAGAACACTTA)	0.807
TAGAACACTTGGGTTCTAACCTGTTGCTG (site TAGAACACTAA)	0.106

Sequence	recombinant barcode read abundance (log10)
TAGAACACTTGGGTTCTAACCTGTTGCTG (site TAGAACACTCA)	1
TAGAACACTTGGGTTCTAACCTGTTGCTG (site TAGAACACTGA)	0.132
TAGAACACTTGGGTTCTAACCTGTTGCTG (site TAGAACACTTA)	0.0894
TAGAACTCTTGGGTTCTAACCTGTTGCCG (site TAGAACTCTAG)	0.242
TAGAACTCTTGGGTTCTAACCTGTTGCCG (site TAGAACTCTCG)	0.591
TAGAACTCTTGGGTTCTAACCTGTTGCCG (site TAGAACTCTGG)	0.0844
TAGAACTCTTGGGTTCTAACCTGTTGCCG (site TAGAACTCTTG)	0.127
TAGAAGACTTGGGTTCTAACCTGTTGCTT (site TAGAAGACTAA)	0.37
TAGAAGACTTGGGTTCTAACCTGTTGCTT (site TAGAAGACTCA)	0.282
TAGAAGACTTGGGTTCTAACCTGTTGCTT (site TAGAAGACTGA)	0.0968
TAGAAGACTTGGGTTCTAACCTGTTGCTT (site TAGAAGACTTA)	0.399
TAGAAGGCTTGGGTTCTAACCTGTTGCTA (site TAGAAGCCTTA)	0.0194
TAGAAGGCTTGGGTTCTAACCTGTTGCTA (site TAGAAGGCTTA)	1.15
TAGAAGTCTTGGGTTCTAACCTGTTGCTG (site AAGATGTCTCA)	0.122
TAGAAGTCTTGGGTTCTAACCTGTTGCTG (site TAGAAGTCTCA)	1.46
TAGAATACTTGGGTTCTAACCTGTTGCGG (site TAGAATACTCC)	1.06
TAGAATACTTGGGTTCTAACCTGTTGCGG (site TATAATACTCC)	0.0627
TAGAATCCTTGGGTTCTAACCTGTTGCAC (site TAGAATCCTAT)	0.117
TAGAATCCTTGGGTTCTAACCTGTTGCAC (site TAGAATCCTCT)	0.152
TAGAATCCTTGGGTTCTAACCTGTTGCAC (site TAGAATCCTGT)	0.152
TAGAATCCTTGGGTTCTAACCTGTTGCAC (site TAGAATCCTTT)	0.103
TAGACAGCTTGGGTTCTAACCTGTTGCCT (site TAAACAGCTAG)	0.143

Sequence	recombinant barcode read abundance (log10)
TAGACAGCTTGGGTTCTAACCTGTTGCCT (site TACACAGCTAG)	0.122
TAGACAGCTTGGGTTCTAACCTGTTGCCT (site TAGACAGCTAG)	0.416
TAGACAGCTTGGGTTCTAACCTGTTGCCT (site TATACAGCTAG)	0.0229
TAGACGACTTGGGTTCTAACCTGTTGCAC (site TAGACGACTGT)	1.57
TAGACGACTTGGGTTCTAACCTGTTGCAC (site TAGCCGTCTGT)	0.173
TAGACGACTTGGGTTCTAACCTGTTGCTT (site TAGACGACTAA)	0.829
TAGACGACTTGGGTTCTAACCTGTTGCTT (site TAGCCGACTAA)	0.0758
TAGACGACTTGGGTTCTAACCTGTTGCTT (site TAGGCGACTAA)	0.0736
TAGACGACTTGGGTTCTAACCTGTTGCTT (site TAGTCGACTAA)	0.086
TAGACTACTTGGGTTCTAACCTGTTGCCT (site CAGACTCCTAG)	0.055
TAGACTACTTGGGTTCTAACCTGTTGCCT (site TAGACTACTAG)	0.521
TAGACTACTTGGGTTCTAACCTGTTGCTC (site TAGACTACTAA)	0
TAGACTACTTGGGTTCTAACCTGTTGCTC (site TAGACTACTCA)	0.082
TAGACTACTTGGGTTCTAACCTGTTGCTC (site TAGACTACTGA)	0.123
TAGACTACTTGGGTTCTAACCTGTTGCTC (site TAGACTACTTA)	0.0392
TAGACTACTTGGGTTCTAACCTGTTGCTG (site TAGACTACTAA)	0.0928
TAGACTACTTGGGTTCTAACCTGTTGCTG (site TAGACTACTCA)	0.609
TAGACTACTTGGGTTCTAACCTGTTGCTG (site TAGACTACTGA)	0.215
TAGACTACTTGGGTTCTAACCTGTTGCTG (site TAGACTACTTA)	0.0595
TAGAGCACTTGGGTTCTAACCTGTTGCCT (site AAGAGCACTAG)	0.057
